Experimental data published in patent US8710089B2, “Triazole derivatives as ghrelin analogue ligands of growth hormone secretagogue receptors” (Zentaris GmbH, priority 2005, dated 2014).

Each molecule was assayed against T1, human GHS-R 1a (Homo sapiens, UniProt Q92847) (assay: GHS-R 1a receptor-ligand binding assay (membrane preparations from transfected LLC PK-1 cells)). Conditions: displacement of 125I-His9-ghrelin (60 pM); membranes of LLC PK-1 cells transfected with human GHS-R 1a; mean of at least two independent experiments in triplicates.
T1 construct: expressed in transfected cells; host or cells: LLC PK-1 porcine renal epithelial cells (ECACC No. 86121112), isolated plasma membranes
T1 sequence (Q92847 whole entry): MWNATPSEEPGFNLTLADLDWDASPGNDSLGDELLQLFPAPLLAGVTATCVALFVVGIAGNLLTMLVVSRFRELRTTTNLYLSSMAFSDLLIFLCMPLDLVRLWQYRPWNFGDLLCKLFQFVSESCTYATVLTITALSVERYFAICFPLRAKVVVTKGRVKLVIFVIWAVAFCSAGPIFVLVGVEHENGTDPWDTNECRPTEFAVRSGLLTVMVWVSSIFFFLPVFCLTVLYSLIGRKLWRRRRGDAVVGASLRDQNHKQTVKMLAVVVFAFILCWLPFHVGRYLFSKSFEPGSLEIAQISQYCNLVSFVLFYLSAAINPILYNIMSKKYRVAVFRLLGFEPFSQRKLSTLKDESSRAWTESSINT
Procedure: (J. Med. […] Med. Chem. 2003, 46: 1191-1203), were incubated in homogenization buffer HB [50 mM Tris (pH 7.3), 5 mM MgCl2, 2.5 mM EDTA, and 30 μg/mL bacitracin (Sigma)] for 60 min at 25° C. (steady-state conditions) with 60 pM ^125I-[…]-ghrelin (Amersham) in the presence or absence of competing compounds (compounds of the invention). […] Nonspecific binding was defined using an excess (10^-6 M) of ghrelin. The binding reaction was stopped by addition of 4 mL of ice-cold HB followed by rapid filtration over Whatman GP/C filters presoaked with 0.5% polyethyleneimine to prevent excessive binding of radioligand to the filters. […] IC50 values given are the mean of at least two independent experiments performed in triplicates.

Compound	IC50
COc1ccc(Cn2c(CCc3ccccc3)nnc2[C@@H](Cc2c[nH]c3ccccc23)NC(=O)CN)c(OC)c1 [compound 75, (R)—N-(1-(4-(2,4-dimethoxybenzyl)-5-phenethyl-4H-1,2,4-triazol-3-yl)-2-(1H-indol-3-yl)ethyl)-2-aminoacetamide]	140 nM
COc1ccc(Cn2c(CCc3ccccc3)nnc2[C@@H](Cc2c[nH]c3ccccc23)NC(=O)c2cnccn2)cc1 [compound 76, (R)—N-(1-(4-(4-methoxybenzyl)-5-phenethyl-4H-1,2,4-triazol-3-yl)-2-(1H-indol-3-yl)ethyl)pyrazine-2-carboxamide]	14 nM
COc1ccc(Cn2c(CCc3ccccc3)nnc2[C@@H](Cc2c[nH]c3ccccc23)NC(=O)c2ccncc2)cc1 [compound 77, (R)—N-(1-(4-(4-methoxybenzyl)-5-phenethyl-4H-1,2,4-triazol-3-yl)-2-(1H-indol-3-yl)ethyl)isonicotinamide]	119 nM
COc1ccc(Cn2c(CCc3ccccc3)nnc2[C@@H](Cc2c[nH]c3ccccc23)NC(=O)C2CNCCN2)cc1 (stereo partly shown) [compound 78]	54 nM
COc1ccc(Cn2c(CCc3ccccc3)nnc2[C@@H](Cc2c[nH]c3ccccc23)NC(=O)c2ccccn2)cc1 [compound 79, (R)—N-(1-(4-(4-methoxybenzyl)-5-phenethyl-4H-1,2,4-triazol-3-yl)-2-(1H-indol-3-yl)ethyl)picolinamide]	0.7 nM
CCc1ccc(Cn2c(CCc3ccccc3)nnc2[C@@H](Cc2c[nH]c3ccccc23)NC(=O)Cc2ccccn2)cc1 [compound 82, (R)—N-(1-(4-(4-ethylbenzyl)-5-phenethyl-4H-1,2,4-triazol-3-yl)-2-(1H-indol-3-yl)ethyl)-2-(pyridin-2-yl)acetamide]	51 nM
CCc1ccc(Cn2c(CCc3ccccc3)nnc2[C@@H](Cc2c[nH]c3ccccc23)NC(=O)C2CCNCC2)cc1 [compound 83, (R)—N-(1-(4-(4-ethylbenzyl)-5-phenethyl-4H-1,2,4-triazol-3-yl)-2-(1H-indol-3-yl)ethyl)piperidine-4-carboxamide]	19 nM
CCc1ccc(Cn2c(CCc3ccccc3)nnc2[C@@H](Cc2c[nH]c3ccccc23)NC(=O)c2cnccn2)cc1 [compound 85, (R)—N-(1-(4-(4-ethylbenzyl)-5-phenethyl-4H-1,2,4-triazol-3-yl)-2-(1H-indol-3-yl)ethyl)pyrazine-2-carboxamide]	89 nM
COc1ccc(Cn2c(CCc3c[nH]c4ccccc34)nnc2[C@@H](Cc2c[nH]c3ccccc23)NC(=O)C2CCCCC2N)c(OC)c1 (stereo partly drawn) [compound 86, (R)—N-(1-(5-(2-(1H-indol-3-yl)ethyl)-4-(2,4-dimethoxybenzyl)-4H-1,2,4-triazol-3-yl)-2-(1H-indol-3-yl)ethyl)-2-cis-aminocyclohexanecarboxamide]	143 nM
COc1ccc(Cn2c(CCc3c[nH]c4ccccc34)nnc2[C@@H](Cc2c[nH]c3ccccc23)NC(=O)[C@H]2CCCNC2)cc1 [compound 87, (S)—N—((R)-1-(5-(2-(1H-indol-3-yl)ethyl)-4-(4-methoxybenzyl)-4H-1,2,4-triazol-3-yl)-2-(1H-indol-3-yl)ethyl)piperidine-3-carboxamide]	10 nM
COc1ccc(Cn2c(CCc3c[nH]c4ccccc34)nnc2[C@@H](Cc2c[nH]c3ccccc23)NC(=O)[C@H]2CCCCN2)cc1 [compound 88, (R)—N—((R)-1-(5-(2-(1H-indol-3-yl)ethyl)-4-(4-methoxybenzyl)-4H-1,2,4-triazol-3-yl)-2-(1H-indol-3-yl)ethyl)piperidine-2-carboxamide]	29 nM
COc1ccc(Cn2c(CCc3c[nH]c4ccccc34)nnc2[C@@H](Cc2c[nH]c3ccccc23)NC(=O)[C@@H]2CCCN2)cc1 [compound 89, (S)—N—((R)-1-(5-(2-(1H-indol-3-yl)ethyl)-4-(4-methoxybenzyl)-4H-1,2,4-triazol-3-yl)-2-(1H-indol-3-yl)ethyl)pyrrolidine-2-carboxamide]	9 nM
COc1ccc(Cn2c(CCc3c[nH]c4ccccc34)nnc2[C@@H](Cc2c[nH]c3ccccc23)NC(=O)Cc2ccccn2)cc1 [compound 91, (R)—N-(1-(5-(2-(1H-indol-3-yl)ethyl)-4-(4-methoxybenzyl)-4H-1,2,4-triazol-3-yl)-2-(1H-indol-3-yl)ethyl)-2-(pyridin-2-yl)acetamide]	11 nM
CC(C)(N)C(=O)N[C@H](Cc1c[nH]c2ccccc12)c1nnc(CCc2c[nH]c3ccccc23)n1Cc1ccc(Br)cc1 [compound 92, (R)—N-(1-(5-(2-(1H-indol-3-yl)ethyl)-4-(4-bromobenzyl)-4H-1,2,4-triazol-3-yl)-2-(1H-indol-3-yl)ethyl)-2-amino-2-methylpropanamide]	200 nM
O=C(N[C@H](Cc1c[nH]c2ccccc12)c1nnc(CCc2ccccc2)n1Cc1cccs1)C1CCNCC1 [compound 94, (R)—N-(2-(1H-indol-3-yl)-1-(5-phenethyl-4-(thiophen-2-ylmethyl)-4H-1,2,4-triazol-3-yl)ethyl)piperidine-4-carboxamide]	255 nM
COc1cc(Cn2c(Cc3ccccc3)nnc2[C@@H](Cc2c[nH]c3ccccc23)NC(=O)C(C)(C)N)cc(OC)c1 [compound 108, (R)—N-(1-(4-(3,5-dimethoxybenzyl)-5-benzyl-4H-1,2,4-triazol-3-yl)-2-(1H-indol-3-yl)ethyl)-2-amino-2-methylpropanamide]	250 nM
COc1ccc(Cn2c(CCc3c[nH]c4ccccc34)nnc2[C@@H](Cc2c[nH]c3ccccc23)NC(=O)Cc2ccncc2)cc1 [compound 136, N—((R)-1-(5-(2-(1H-indol-3-yl)ethyl)-4-(4-methoxybenzyl)-4H-1,2,4-triazol-3-yl)-2-(1H-indol-3-yl)ethyl)-2-(pyridin-4-yl)acetamide]	106 nM
CCc1ccc(Cn2c(CCc3ccccc3)nnc2[C@@H](Cc2c[nH]c3ccccc23)NC(=O)c2ccccn2)cc1 [compound 138, N—((R)-1-(4-(4-ethylbenzyl)-5-phenethyl-4H-1,2,4-triazol-3-yl)-2-(1H-indol-3-yl)ethyl)picolinamide]	44 nM
O=C(N[C@H](Cc1c[nH]c2ccccc12)c1nnc(CCc2ccccc2)n1-c1ccccc1)c1ccccn1 [compound 146, N—((R)-2-(1H-indol-3-yl)-1-(5-phenethyl-4-phenyl-4H-1,2,4-triazol-3-yl)ethyl)picolinamide]	105 nM
CCc1ccc(-n2c(CCc3c[nH]c4ccccc34)nnc2[C@@H](Cc2c[nH]c3ccccc23)NC(=O)c2ccccn2)cc1 [compound 147, N—((R)-1-(5-(2-(1H-indol-3-yl)ethyl)-4-(4-ethylphenyl)-4H-1,2,4-triazol-3-yl)-2-(1H-indol-3-yl)ethyl)picolinamide]	49 nM
CCc1ccc(-n2c(CCc3c[nH]c4ccccc34)nnc2[C@@H](Cc2c[nH]c3ccccc23)NC(=O)Cc2ccccn2)cc1 [compound 148, N—((R)-1-(5-(2-(1H-indol-3-yl)ethyl)-4-(4-ethylphenyl)-4H-1,2,4-triazol-3-yl)-2-(1H-indol-3-yl)ethyl)-2-(pyridin-2-yl)acetamide]	96 nM
COc1ccc(Cn2c(CCc3c[nH]c4ccccc34)nnc2[C@@H](Cc2c[nH]c3ccccc23)NC(=O)CN)cc1 [compound 152, N—((R)-1-(5-(2-(1H-indol-3-yl)ethyl)-4-(4-methoxybenzyl)-4H-1,2,4-triazol-3-yl)-2-(1H-indol-3-yl)ethyl)-2-aminoacetamide]	138 nM
